Experiment: xn = mol fraction of the nth substance listed
Details: 298.1 K, 100 kPa

CC(=O)[O-].CC[n+]1ccn(C)c1 + CS(C)=O
Details	electrical conductivity [S/m]
x1 = 0.01	0.16
x1 = 0.029	0.48
x1 = 0.044	0.63
x1 = 0.055	0.73
x1 = 0.082	0.83
x1 = 0.165	1.04
x1 = 0.237	1.07
x1 = 0.313	1.01
x1 = 0.415	0.93
x1 = 0.513	0.81
x1 = 0.813	0.5
x1 = 1	0.38

CCOP(=O)([O-])OCC.CC[n+]1ccn(C)c1 + CS(C)=O
Details	electrical conductivity [S/m]
x1 = 0.006	0.1
x1 = 0.013	0.19
x1 = 0.04	0.48
x1 = 0.059	0.57
x1 = 0.074	0.62
x1 = 0.119	0.68
x1 = 0.169	0.64
x1 = 0.233	0.57
x1 = 0.32	0.5
x1 = 0.544	0.28

CC[n+]1ccn(C)c1.F[B-](F)(F)F + CS(C)=O
Details	electrical conductivity [S/m]
x1 = 0.01	0.25
x1 = 0.017	0.69
x1 = 0.021	0.67
x1 = 0.032	1.04
x1 = 0.051	1.24
x1 = 0.066	1.53
x1 = 0.097	1.68
x1 = 0.15	1.84
x1 = 0.286	1.67
x1 = 0.483	1.48
x1 = 0.782	1.13
x1 = 1	0.91
